Common to all, as to assay type: biochemical
The target in test [1] is T1, mainprotease (Mpro) of SARS-COV-2 virus (Severe acute respiratory syndrome coronavirus 2, UniProt P0DTD1).
T1 construct: Mainprotease (Mpro) of SARS-COV-2 Virus; purchased BPS Bioscience 78042-2
Nature of the test: Inhibition effect of CA on Mpro enzyme activity (BPS Bioscience Mpro detection kit 78042-2, fluorescence). The note with it: incubated at room temperature for 30 min; Ex/Em=360/460 nm; FIG. 2.

A further test concerns the target T2, neutrophil elastase (NE) (Homo sapiens, UniProt P08246).
T2 construct: purchased Abcam ab118971
T2 sequence (P08246 30-267): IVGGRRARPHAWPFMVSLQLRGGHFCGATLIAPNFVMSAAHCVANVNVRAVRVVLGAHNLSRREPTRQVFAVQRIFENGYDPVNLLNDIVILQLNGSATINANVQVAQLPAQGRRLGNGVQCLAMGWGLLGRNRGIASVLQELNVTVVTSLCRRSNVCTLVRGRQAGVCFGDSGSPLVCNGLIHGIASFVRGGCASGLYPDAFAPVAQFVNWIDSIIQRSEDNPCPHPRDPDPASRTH
Nature of the test: Inhibition effect of CA on NE protease enzyme activity (Abcam NE protease detection kit ab118971, fluorescence). The note with it: incubated at 37° C. for 5 min; Ex/Em=400/505 nm; FIG. 3. On the procedure: • 1. Experimental materials include a NE protease detection kit (ab118971) of an Abcam company and CA. • 2. Experimental methods are as follows. In a black 96-well plate, a blank well group, a negative control well group and a sample well group are set, and a detection system is 100 μL. The blank well group is added with 75 μL of buffer, the negative control well group is added with 50 μL of NE protease and 25 μL of buffer, the sample well group is added with 50 μL of NE protease and 25 μL of CA solution (respectively with concentrations of 0.00001 μM, 0.0001 μM, 0.001 μM, 0.003 μM, 0.01 μM and 0.1 μM), and the three groups are incubated at a temperature of 37° C. for 5 min. Each well is added with 25 μL of substrate, after mixing evenly, fluorescence value of each well is immediately detected at Ex/Em=400/505 nm, every 20 seconds, and a dynamic process within a range of 0-40 min is observed. Two different time points (T1 and T2) are selected within a linear range of the dynamic process to obtain fluorescence values (RFUT1 and RFUT2) corresponding to the time points, a slope of the fluorescence values is calculated, and the slope can be regarded as an enzyme activity of each well. A formula of the slope is slope=(RFUT2−RFUT1)/(T2−T1). […] A half inhibitory concentration (IC50) is calculated through the Origin 2021 software. • 3.

In test [2] the target is T3, transmembrane serine protease 2 (TMPRSS2) (Homo sapiens, UniProt O15393).
T3 construct: purchased BPS Bioscience 78083
Nature of the test: Inhibition effect of CA on TMPRSS2 enzyme activity (BPS Bioscience TMPRSS2 detection kit 78083, fluorescence). The note with it: incubated at room temperature for 30 min; Ex/Em=383/455 nm; FIG. 1. Here is the method: • 1. Experimental materials include a TMPRSS2 detection kit (78083) of a BPS Bioscience company and CA. • 2. Experimental methods are as follows. In a black 96-well plate, a blank well group, a negative control well group and a sample well group are set, and a detection system is 50 microliters (μL). The blank well group is added with 40 μL of buffer, the negative control well group is added with 30 μL of TMPRSS2 protease and 10 μL of buffer, the sample well group is added with 30 μL of TMPRSS2 protease and 10 μL of CA solution (respectively with concentrations of 0.1 micromole per liter abbreviated as μM, 1 μM, 10 μM, 30 μM, 100 μM, 150 μM, and 200 μM), and the three groups are incubated at the room temperature for 30 min. Each well is added with 10 μL of substrate, after mixing evenly, fluorescence value of each well is immediately detected at excitation/emission (Ex/Em)=383/455 nanometers (nm), every 30 seconds, and a dynamic process within a range of 0-40 min is observed. Two different time points (T1 and T2) are selected within a linear range of the dynamic process to obtain fluorescence values (RFUT1 and RFUT2) corresponding to the time points, a slope of the fluorescence values is calculated, and the slope can be regarded as an enzyme activity of each well. […] A half inhibitory concentration (IC50) is calculated through an Origin 2021 software. • 3.

Numbered stars: 1 amine (or outer) side, 2 acyl side, 3 side chain; on linkers, the order of the positions; unused ones are H or OH. Bridge positions count the residues as written; N and C are the ends. Square brackets hold non-standard residues; d marks the D form. Peptide text beside a SMILES is read from it. * marks the point of attachment. X2 = O=C(/C=C/c1csc([C@H](Cc2ccc(O)cc2)N[*:1])n1)[*:2]; X1 = CC[C@H](C)[C@H](N[*:1])C(=O)C(=O)[*:2]; Benzoyl(4-OH) = O=C(c1ccc(O)cc1)*; Cya = N[C@@H](CS(=O)(=O)O)C(=O)O; Nva = CCC[C@H](N)C(=O)O; Dap = NC[C@H](N)C(=O)O

T3 sequence (O15393 whole entry): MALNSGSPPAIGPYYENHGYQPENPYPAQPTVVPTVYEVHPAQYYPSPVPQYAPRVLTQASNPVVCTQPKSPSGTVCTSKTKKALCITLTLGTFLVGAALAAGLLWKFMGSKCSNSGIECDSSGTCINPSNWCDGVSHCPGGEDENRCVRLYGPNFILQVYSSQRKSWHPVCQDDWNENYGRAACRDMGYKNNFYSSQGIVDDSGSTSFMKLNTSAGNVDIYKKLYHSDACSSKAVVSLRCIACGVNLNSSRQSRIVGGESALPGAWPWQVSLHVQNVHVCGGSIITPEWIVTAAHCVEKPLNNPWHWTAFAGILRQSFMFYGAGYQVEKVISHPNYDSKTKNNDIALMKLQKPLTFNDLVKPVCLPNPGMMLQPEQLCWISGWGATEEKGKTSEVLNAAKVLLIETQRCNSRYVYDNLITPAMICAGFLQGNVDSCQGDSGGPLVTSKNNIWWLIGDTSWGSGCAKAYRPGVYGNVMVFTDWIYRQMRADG

Broadly, the IC50 is the point on the concentration scale where inhibition reaches its midpoint. Take `CCC[C@@H]1NC(=O)[C@@H](NC(=O)[C@H](C)NC(=O)CNC(=O)c2ccc(O)cc2)CNC(=O)[C@H](CS(=O)(=O)O)NC(=O)/C=C/c2csc(n2)[C@H](Cc2ccc(O)cc2)NC(=O)C(=O)[C@H]([C@@H](C)CC)NC1=O` [CA, CyclotheonellazoleA] ({Benzoyl(4-OH)}-GA[Dap][Nva][X1][X2][Cya]; lactam 3-C): the figures for the IC50 (in test [1]; against neutrophil elastase (NE); in test [2]) were 159 µM, 0.001 µM and 19.2 µM, respectively.

The values are drawn from patent US20240254162A1, “CYCLOTHEONELLAZOLEA, AND SYNTHETIC METHOD THEREFOR, AND APPLICATION METHOD THEREOF” (The Second People's Hospital of Shenzhen(Shenzhen Institute …, priority 2022, published 2024).
